Source: PubChem BioAssay (NCI)
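Results reflect a 48-hour exposure of cells in 96-well plates to compound at five concentrations. TGI: concentration producing complete growth inhibition.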

How the values were obtained:
Experiment in all cases: NCI anticancer screen, dose series, 48 h
MOLT-4 leukemia = test system: MOLT-4 leukemia
SK-OV-3 ovarian = test system: SK-OV-3 ovarian
HOP-62 NSCLC = test system: HOP-62 NSCLC
SR leukemia = test system: SR leukemia
NCI-H23 lung = test system: NCI-H23 lung
SN12C renal = test system: SN12C renal
MDA-MB-231 breast = test system: MDA-MB-231 breast
NCI-H522 lung = test system: NCI-H522 lung
SF-539 CNS = test system: SF-539 CNS
LOX IMVI melanoma = test system: LOX IMVI melanoma
NCI-H226 lung = test system: NCI-H226 lung
KM12 colon = test system: KM12 colon
HCC-2998 colon = test system: HCC-2998 colon
SK-MEL-28 melanoma = test system: SK-MEL-28 melanoma
CAKI-1 renal = test system: CAKI-1 renal
SF-268 CNS = test system: SF-268 CNS
NCI-H460 lung = test system: NCI-H460 lung
MDA-N = test system: MDA-N

## O=C1c2c(ccc3c2CCCC3)CC12Cc1ccccc1C2
MOLT-4 leukemia
  TGI: > 35.4 µM
SK-OV-3 ovarian
  TGI: > 100 µM
HOP-62 NSCLC
  TGI: > 100 µM
SR leukemia
  TGI: > 27.6 µM
NCI-H23 lung
  TGI: > 96.2 µM
SN12C renal
  TGI: > 100 µM
MDA-MB-231 breast
  TGI: 52.7 µM
NCI-H522 lung
  TGI: 56.7 µM
SF-539 CNS
  TGI: > 75.3 µM
LOX IMVI melanoma
  TGI: 29.4 µM
NCI-H226 lung
  TGI: 71.7 µM
KM12 colon
  TGI: 59.9 µM
HCC-2998 colon
  TGI: > 74.8 µM
SK-MEL-28 melanoma
  TGI: > 80.4 µM
CAKI-1 renal
  TGI: > 77.7 µM
SF-268 CNS
  TGI: > 100 µM
NCI-H460 lung
  TGI: > 47.1 µM
MDA-N
  TGI: > 100 µM

## O=C1CSC(c2ccc(Cl)cc2)N1c1ccc(-n2c(-c3ccccc3)nc3ccccc3c2=O)cc1 (centres undefined)
MOLT-4 leukemia
  TGI: > 100 µM
SK-OV-3 ovarian
  TGI: > 100 µM
HOP-62 NSCLC
  TGI: > 100 µM
SR leukemia
  TGI: > 100 µM
NCI-H23 lung
  TGI: > 100 µM
SN12C renal
  TGI: > 100 µM
MDA-MB-231 breast
  TGI: > 100 µM
NCI-H522 lung
  TGI: > 100 µM
SF-539 CNS
  TGI: > 100 µM
LOX IMVI melanoma
  TGI: > 100 µM
NCI-H226 lung
  TGI: > 100 µM
KM12 colon
  TGI: > 100 µM
HCC-2998 colon
  TGI: > 100 µM
SK-MEL-28 melanoma
  TGI: > 100 µM
CAKI-1 renal
  TGI: > 100 µM
SF-268 CNS
  TGI: > 100 µM
NCI-H460 lung
  TGI: > 100 µM
MDA-N
  TGI: > 100 µM

## O=C1N[C@@H](c2c[nH]c3ccc(Br)cc23)C(=O)N[C@H]1c1c[nH]c2ccc(Br)cc12
MOLT-4 leukemia
  TGI: 20.1 µM
SK-OV-3 ovarian
  TGI: 31.1 µM
HOP-62 NSCLC
  TGI: 27 µM
SR leukemia
  TGI: 19.3 µM
NCI-H23 lung
  TGI: 28.2 µM
SN12C renal
  TGI: 27.4 µM
MDA-MB-231 breast
  TGI: 26.3 µM
NCI-H522 lung
  TGI: 24 µM
SF-539 CNS
  TGI: 18.9 µM
LOX IMVI melanoma
  TGI: 20.9 µM
NCI-H226 lung
  TGI: 26.9 µM
KM12 colon
  TGI: 18.6 µM
HCC-2998 colon
  TGI: 11.8 µM
SK-MEL-28 melanoma
  TGI: 28.5 µM
CAKI-1 renal
  TGI: 30.4 µM
SF-268 CNS
  TGI: 26.3 µM
NCI-H460 lung
  TGI: 27.8 µM
MDA-N
  TGI: 20.7 µM

## Clc1ccc(CCN2CCN(CCCc3ccccc3)CC2)cc1Cl
MOLT-4 leukemia
  TGI: > 100 µM
SK-OV-3 ovarian
  TGI: 35.1 µM
HOP-62 NSCLC
  TGI: 35.8 µM
SR leukemia
  TGI: 78.8 µM
NCI-H23 lung
  TGI: 31.6 µM
SN12C renal
  TGI: 29.8 µM
MDA-MB-231 breast
  TGI: 30.8 µM
NCI-H522 lung
  TGI: 36.7 µM
SF-539 CNS
  TGI: 32.4 µM
LOX IMVI melanoma
  TGI: 31.5 µM
NCI-H226 lung
  TGI: 38 µM
KM12 colon
  TGI: 32.1 µM
HCC-2998 colon
  TGI: 31.3 µM
SK-MEL-28 melanoma
  TGI: 37.5 µM
CAKI-1 renal
  TGI: 33.8 µM
SF-268 CNS
  TGI: 35.3 µM
NCI-H460 lung
  TGI: 33.5 µM
MDA-N
  TGI: 31.4 µM

## CC(C)(C)C(=O)C(C#N)C(=O)C(C)(C)C
MOLT-4 leukemia
  TGI: > 100 µM
SK-OV-3 ovarian
  TGI: > 100 µM
HOP-62 NSCLC
  TGI: > 100 µM
SR leukemia
  TGI: 50 µM
NCI-H23 lung
  TGI: > 100 µM
SN12C renal
  TGI: > 100 µM
MDA-MB-231 breast
  TGI: > 100 µM
NCI-H522 lung
  TGI: > 100 µM
SF-539 CNS
  TGI: > 100 µM
LOX IMVI melanoma
  TGI: > 100 µM
NCI-H226 lung
  TGI: > 100 µM
KM12 colon
  TGI: > 100 µM
HCC-2998 colon
  TGI: > 100 µM
SK-MEL-28 melanoma
  TGI: > 100 µM
CAKI-1 renal
  TGI: > 100 µM
SF-268 CNS
  TGI: > 100 µM
NCI-H460 lung
  TGI: > 100 µM
MDA-N
  TGI: > 100 µM

## O=C(C(=O)n1ccc2ccccc21)c1c[nH]c2ccccc12
MOLT-4 leukemia
  TGI: > 10 µM
SK-OV-3 ovarian
  TGI: > 10 µM
HOP-62 NSCLC
  TGI: > 10 µM
SR leukemia
  TGI: > 10 µM
NCI-H23 lung
  TGI: > 10 µM
SN12C renal
  TGI: > 10 µM
MDA-MB-231 breast
  TGI: > 10 µM
NCI-H522 lung
  TGI: > 10 µM
SF-539 CNS
  TGI: > 10 µM
LOX IMVI melanoma
  TGI: > 10 µM
NCI-H226 lung
  TGI: > 10 µM
KM12 colon
  TGI: > 10 µM
HCC-2998 colon
  TGI: > 10 µM
SK-MEL-28 melanoma
  TGI: > 10 µM
CAKI-1 renal
  TGI: > 10 µM
SF-268 CNS
  TGI: > 10 µM
NCI-H460 lung
  TGI: > 10 µM
MDA-N
  TGI: > 10 µM

## O=C(c1ccccc1)c1cc(-c2ccccc2)c(-c2ccccc2)[nH]c(=O)c1=O
MOLT-4 leukemia
  TGI: 57.2 µM
SK-OV-3 ovarian
  TGI: > 100 µM
HOP-62 NSCLC
  TGI: > 100 µM
SR leukemia
  TGI: 57.1 µM
NCI-H23 lung
  TGI: 49.4 µM
SN12C renal
  TGI: > 100 µM
MDA-MB-231 breast
  TGI: > 100 µM
NCI-H522 lung
  TGI: 74.4 µM
SF-539 CNS
  TGI: > 100 µM
LOX IMVI melanoma
  TGI: > 100 µM
NCI-H226 lung
  TGI: > 100 µM
KM12 colon
  TGI: > 100 µM
HCC-2998 colon
  TGI: 60.6 µM
SK-MEL-28 melanoma
  TGI: > 100 µM
CAKI-1 renal
  TGI: > 100 µM
SF-268 CNS
  TGI: > 100 µM
NCI-H460 lung
  TGI: > 100 µM
MDA-N
  TGI: > 100 µM

## COc1ccc(N=Nc2ccc3oc(=O)c(C(=O)Nc4ccc(OC)cc4)cc3c2)cc1
MOLT-4 leukemia
  TGI: 34.9 µM
SK-OV-3 ovarian
  TGI: 83.5 µM
HOP-62 NSCLC
  TGI: 30.3 µM
SR leukemia
  TGI: 87.5 µM
NCI-H23 lung
  TGI: 43.8 µM
SN12C renal
  TGI: 45.2 µM
MDA-MB-231 breast
  TGI: 88.1 µM
NCI-H522 lung
  TGI: 75.6 µM
SF-539 CNS
  TGI: 22.8 µM
LOX IMVI melanoma
  TGI: 18.1 µM
NCI-H226 lung
  TGI: 32.8 µM
KM12 colon
  TGI: 33.5 µM
HCC-2998 colon
  TGI: 45.3 µM
SK-MEL-28 melanoma
  TGI: 41.1 µM
CAKI-1 renal
  TGI: > 100 µM
SF-268 CNS
  TGI: 48.8 µM
NCI-H460 lung
  TGI: 79.4 µM
MDA-N
  TGI: > 100 µM
